Test results: ChEMBL document CHEMBL5346941, “Design, synthesis and evaluation of novel monoamine oxidase B (MAO-B) inhibitors with improved pharmacokinetic properties for Parkinson's disease” (Eur J Med Chem, 2023)

Legend:
[1] = Metabolic stability in dog liver microsomes assessed as half life at 1 uM incubated for 60 mins in presence of NADPH by LC-MS/MS analysis; type: ADME, Canis lupus familiaris, Microsome
[2] = target: T1, Amine oxidase [flavin-containing] B (Homo sapiens, UniProt P27338); test: Inhibition of recombinant human MAO-B expressed in Sf9 cells using p-tyramine as substrate preincubated for 15 mins followed by substrate addition and measured after 60 mins by luciferin based luminescence analysis
T1 sequence (P27338 whole entry): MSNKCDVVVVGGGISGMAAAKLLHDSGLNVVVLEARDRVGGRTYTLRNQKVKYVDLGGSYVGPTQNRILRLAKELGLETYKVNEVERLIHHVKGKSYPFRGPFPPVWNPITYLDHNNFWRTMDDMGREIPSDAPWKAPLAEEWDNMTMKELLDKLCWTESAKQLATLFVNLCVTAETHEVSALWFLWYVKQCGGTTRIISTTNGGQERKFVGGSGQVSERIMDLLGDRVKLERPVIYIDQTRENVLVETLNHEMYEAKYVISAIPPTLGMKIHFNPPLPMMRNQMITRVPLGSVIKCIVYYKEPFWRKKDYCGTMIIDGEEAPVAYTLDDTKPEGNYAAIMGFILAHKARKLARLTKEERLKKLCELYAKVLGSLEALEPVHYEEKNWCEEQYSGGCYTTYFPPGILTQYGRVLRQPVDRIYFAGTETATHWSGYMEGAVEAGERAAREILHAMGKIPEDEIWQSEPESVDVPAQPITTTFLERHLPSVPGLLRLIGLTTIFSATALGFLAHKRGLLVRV

CYP2C19 = CYP2C19 (Homo sapiens, UniProt P33261); test: Inhibition of CYP2C19 in human liver microsomes using omeprazole as substrate at 10 uM incubated for 45 mins in presence of NADPH by LC-MS/MS analysis relative to control; type: ADME, Microsome; details: probe omeprazole
[3] = Metabolic stability in rat liver microsomes assessed as half life at 1 uM incubated for 60 mins in presence of NADPH by LC-MS/MS analysis; type: ADME, Microsome
[4] = Drug concentration in Sprague-Dawley rat plasma at 5 mg/kg, ip measured after 15 mins by LC-MS/MS analysis; type: ADME, organism-based
CYP2B6 = target: T2, CYP2B6 (Homo sapiens, UniProt P20813); test: Inhibition of CYP2B6 in human liver microsomes using bupropion as substrate at 10 uM incubated for 10 mins in presence of NADPH by LC-MS/MS analysis relative to control; type: ADME, Microsome; details: probe bupropion
T2 sequence (P20813 whole entry): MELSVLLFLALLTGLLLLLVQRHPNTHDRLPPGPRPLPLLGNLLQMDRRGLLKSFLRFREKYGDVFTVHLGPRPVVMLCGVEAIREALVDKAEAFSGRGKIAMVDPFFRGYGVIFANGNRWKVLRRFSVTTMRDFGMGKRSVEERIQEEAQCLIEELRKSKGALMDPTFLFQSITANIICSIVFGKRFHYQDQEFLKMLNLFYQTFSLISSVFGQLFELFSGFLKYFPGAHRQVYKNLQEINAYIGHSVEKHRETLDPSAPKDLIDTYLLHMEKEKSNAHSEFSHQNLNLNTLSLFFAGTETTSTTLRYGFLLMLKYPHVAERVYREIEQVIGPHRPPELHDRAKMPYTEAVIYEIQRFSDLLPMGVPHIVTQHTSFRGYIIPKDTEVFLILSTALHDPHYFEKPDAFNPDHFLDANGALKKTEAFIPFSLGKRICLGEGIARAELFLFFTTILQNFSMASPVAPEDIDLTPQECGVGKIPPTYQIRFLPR

[5] = Apparent permeability across basolateral to apical side in MDCKII-MDR1 cells at 10 uM incubated for 30 mins by LC-MS/MS analysis; type: ADME, cell-based, Canis lupus familiaris; details: dog, MDCK-MDR1
[6] = Bioavailability in fasted ICR mouse at 5 mg/kg, IG measured for 24 hrs; type: ADME, organism-based; details: in vivo, po
CYP2C8 = target: T3, CYP2C8 (Homo sapiens, UniProt P10632); test: Inhibition of CYP2C8 in human liver microsomes using amodiaquine as substrate at 10 uM incubated for 45 mins in presence of NADPH by LC-MS/MS analysis relative to control; type: ADME, Microsome; details: probe amodiaquine
T3 sequence (P10632 whole entry): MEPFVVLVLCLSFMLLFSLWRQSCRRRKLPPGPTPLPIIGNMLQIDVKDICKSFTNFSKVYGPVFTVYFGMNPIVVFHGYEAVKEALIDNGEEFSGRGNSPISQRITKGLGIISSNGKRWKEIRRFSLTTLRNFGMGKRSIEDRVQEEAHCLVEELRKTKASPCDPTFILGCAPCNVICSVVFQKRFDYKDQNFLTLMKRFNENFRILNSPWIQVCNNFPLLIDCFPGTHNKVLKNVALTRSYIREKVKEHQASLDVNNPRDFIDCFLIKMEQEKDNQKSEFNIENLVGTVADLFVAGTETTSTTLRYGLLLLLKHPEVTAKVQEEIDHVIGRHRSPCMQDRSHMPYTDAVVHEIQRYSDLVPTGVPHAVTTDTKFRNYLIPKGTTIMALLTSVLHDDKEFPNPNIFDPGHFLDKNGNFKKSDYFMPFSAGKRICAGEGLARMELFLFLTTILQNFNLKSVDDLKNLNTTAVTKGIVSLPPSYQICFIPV

[7] = Metabolic stability in rat liver microsomes assessed as intrinsic clearance at 1 uM incubated for 60 mins in presence of NADPH by LC-MS/MS analysis; type: ADME, Microsome; details: read-out: CLH
CYP2C9 = CYP2C9 (Homo sapiens, UniProt P11712); test: Inhibition of CYP2C9 in human liver microsomes using diclofenac as substrate at 10 uM incubated for 10 mins in presence of NADPH by LC-MS/MS analysis relative to control; type: ADME, Microsome; details: probe diclofenac
[8] = Clearance in fasted Sprague-Dawley rat at 1 mg/kg, iv measured for 24 hrs; type: ADME, organism-based; details: in vivo
[9] = Metabolic stability in mouse liver microsomes assessed as intrinsic clearance at 1 uM incubated for 60 mins in presence of NADPH by LC-MS/MS analysis; type: ADME, Microsome; details: read-out: CLH

Chain of CYP2C9 (P11712 whole entry): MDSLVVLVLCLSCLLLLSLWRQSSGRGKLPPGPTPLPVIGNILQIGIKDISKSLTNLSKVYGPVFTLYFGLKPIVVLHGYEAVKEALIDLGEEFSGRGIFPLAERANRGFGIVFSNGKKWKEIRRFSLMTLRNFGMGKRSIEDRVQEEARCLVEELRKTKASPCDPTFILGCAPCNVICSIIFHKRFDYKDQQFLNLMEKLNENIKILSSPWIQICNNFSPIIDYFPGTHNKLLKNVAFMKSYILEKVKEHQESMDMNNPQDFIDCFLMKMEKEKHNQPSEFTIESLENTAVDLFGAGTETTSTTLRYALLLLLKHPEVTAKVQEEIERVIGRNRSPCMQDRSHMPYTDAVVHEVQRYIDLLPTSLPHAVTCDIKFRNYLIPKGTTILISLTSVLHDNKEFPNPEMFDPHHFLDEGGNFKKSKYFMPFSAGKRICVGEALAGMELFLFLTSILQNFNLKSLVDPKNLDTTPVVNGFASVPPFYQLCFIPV
Chain of CYP2C19 (P33261 whole entry): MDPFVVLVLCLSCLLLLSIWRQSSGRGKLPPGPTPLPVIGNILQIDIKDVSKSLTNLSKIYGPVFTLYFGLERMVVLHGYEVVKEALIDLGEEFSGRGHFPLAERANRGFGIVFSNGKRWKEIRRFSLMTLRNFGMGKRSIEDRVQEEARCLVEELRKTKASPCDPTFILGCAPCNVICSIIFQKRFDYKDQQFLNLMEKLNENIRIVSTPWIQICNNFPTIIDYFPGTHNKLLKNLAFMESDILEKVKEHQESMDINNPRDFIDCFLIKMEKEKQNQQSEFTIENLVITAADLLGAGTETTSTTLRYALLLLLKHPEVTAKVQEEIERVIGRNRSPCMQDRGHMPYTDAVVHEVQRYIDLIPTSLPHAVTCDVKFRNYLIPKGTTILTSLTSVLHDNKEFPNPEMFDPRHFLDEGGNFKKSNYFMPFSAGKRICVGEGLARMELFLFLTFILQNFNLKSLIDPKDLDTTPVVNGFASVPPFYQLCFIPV

- half-life at 1 µM [1]: 2.45 h
- IC50 [2]: 37 nM
- inhibition at 0.75 h, 10 µM (CYP2C19): 75.9%
- half-life at 1 µM [3]: 1.48 h
- concentration at 0.25 h [4]: 536 ng/mL
- inhibition at 10 min, 10 µM (CYP2B6): 41.2%
- Papp B→A at 0.5 h, 10 µM [5]: 2.97 ×10⁻⁶ cm/s
- bioavailability [6]: 105%
- inhibition at 0.75 h, 10 µM (CYP2C8): 5.74%
- CLint scaled at 1 µM [7]: 10.1 mL/min/kg
- inhibition at 10 min, 10 µM (CYP2C9): 8.05%
- clearance [8]: 54.2 mL/min/kg
- CLint scaled at 1 µM [9]: 6.9 mL/min/kg
SMILES: NC(=O)[C@@H]1C[C@H](F)CN1Cc1ccc2oc(-c3ccc(F)cc3)cc2c1
